≈ marks a conversion by molar mass, not a printed value. Where two headings read alike, the source gives them in different places.
How the values were obtained:
Reovirus = experiment: inhibition of cytopathic effect of reovirus; assay type: cell-based; conditions: Table 3; Vero B cells
Parainfluenza 3 = experiment: inhibition of cytopathic effect of parainfluenza 3; assay type: cell-based; conditions: Table 3; Vero B cells
Sindbis = experiment: inhibition of cytopathic effect of Sindbis; assay type: cell-based; conditions: Table 3; Vero B cells
Coxsackie B4 = experiment: inhibition of cytopathic effect of Coxsackie B4; assay type: cell-based; conditions: Table 3; Vero B, HeLa cells
Polio 1 = experiment: microbe, parasite or virus in culture; assay type: cell-based; conditions: Table 3; HeLa cells
Measles = experiment: inhibition of cytopathic effect of measles; assay type: cell-based; conditions: Table 3; Vero Flow cells
Vesicular stomatitis = experiment: microbe, parasite or virus in culture; assay type: cell-based; conditions: Table 3; HeLa, PRK cells
Vaccinia = experiment: microbe, parasite or virus in culture; assay type: cell-based; conditions: Table 3; PRK cells
Herpes simplex I (KOS) = experiment: inhibition of cytopathic effect of herpes simplex 1 (KOS); assay type: cell-based, herpes simplex virus type 1; conditions: PRK cells
Herpes simplex 2 (G) = experiment: inhibition of cytopathic effect of herpes simplex 2 (G); assay type: cell-based, herpes simplex virus type 2; conditions: PRK cells
Moloney sarcoma = experiment: inhibition of Moloney sarcoma virus; assay type: cell-based, Moloney mouse sarcoma virus; conditions: Table 3; MO cells
HSV-1 (strain) McIntyre = experiment: inhibition of cytopathic effect of HSV-1 strain McIntyre; assay type: cell-based, herpes simplex virus type 1; conditions: Table 4; HSV-1 McIntyre, PRK cells
HSV-1 (strain) F = experiment: inhibition of cytopathic effect of HSV-1 strain F; assay type: cell-based, herpes simplex virus type 1; conditions: Table 4; HSV-1 F, PRK cells
[1] = system: HSV-1 (strain) TK^- B2006; experiment: inhibition of cytopathic effect of HSV-1 TK- strain B2006; assay type: cell-based, herpes simplex virus type 1; conditions: Table 4; HSV-1 TK^- B2006, PRK cells
[2] = system: HSV-1 (strain) TK^- C1101; experiment: inhibition of cytopathic effect of HSV-1 TK- strain C1101; assay type: cell-based, herpes simplex virus type 1; conditions: Table 4; HSV-1 TK^- C1101, PRK cells
HSV-2 (strain) 196 = experiment: inhibition of cytopathic effect of HSV-2 strain 196; assay type: cell-based, herpes simplex virus type 2; conditions: Table 4; HSV-2 196, PRK cells
HSV-2 (strain) Lyons = experiment: inhibition of cytopathic effect of HSV-2 strain Lyons; assay type: cell-based, herpes simplex virus type 2; conditions: Table 4; HSV-2 Lyons, PRK cells
[3] = system: herpes simplex virus type 1 (HSV-1) (strain KOS); assay type: cell-based; conditions: PRK cells
vaccinia virus (VV) = assay type: cell-based; conditions: PRK cells, average of two determinations
PRK cells [4] = conditions: 72 h
PRK cells [5] = experiment: antimetabolic activity: incorporation of 3H-labeled precursors into primary rabbit kidney cells; conditions: for ID50 dUrd incorporation: (3H-1',2')dUrd; for ID50 Leu incorporation: (3H-4,5)Leu; for ID50 Urd incorporation: (3H-5)Urd; for ID50 dThd incorporation: (3H-methyl) dThd
[6] = 48 h, 10 μg/ml (value in parentheses)

Compound	MIC50 (Reovirus)	MIC50 (Parainfluenza 3)	MIC50 (Sindbis)	MIC50 (Coxsackie B4)	MIC50 (Polio 1)	MIC50 (Measles)	MIC50 (Vesicular stomatitis)	MIC50 (Vaccinia)	MIC50 (Herpes simplex I (KOS); Table 3)	MIC50 (Herpes simplex 2 (G); Table 3)	MIC50 (Moloney sarcoma)	MIC50 (HSV-1 (strain) McIntyre)	MIC50 (HSV-1 (strain) F)	MIC50 [2]	MIC50 (HSV-2 (strain) 196)	MIC50 (HSV-2 (strain) Lyons)	Titer of HSV-1 ([3]; 24 h, 100 μg/ml)	Titer of HSV-1 ([3]; 48 h, 100 μg/ml)	Titer of VV (vaccinia virus (VV); 1 h, 100 μg/ml)	Titer of VV (vaccinia virus (VV); 24 h, 100 μg/ml)	further results
(RS)-9-(2(3)hydroxy-3(2)-phosphonylmethoxypropyl)adenine [No. 1]	> 400 µg/mL	> 200 µg/mL	> 400 µg/mL	> 400 µg/mL	> 400 µg/mL	> 400 µg/mL	> 400 µg/mL	0.7 to 3.0 µg/mL	20 to 30 µg/mL	7 to 20 µg/mL	> 60 µg/mL	30 µg/mL	15 to 30 µg/mL	7 to 20 µg/mL	15 to 70 µg/mL	7 to 15 µg/mL	3.3 log10 PFU/ml	4.0 log10 PFU/ml	1.7 log10 PFU/ml	1.7 log10 PFU/ml	MIC50 (Herpes simplex I (KOS); Table 4, HSV-1 KOS): 20 to 30 µg/mL; MIC50 (Herpes simplex 2 (G); Table 4, HSV-2 G): 7 to 20 µg/mL; MIC50 [1]: 7 µg/mL; Titer of HSV-1 ([3]; 1 h, 100 μg/ml): < 1.3 log10 PFU/ml; Titer of HSV-1 ([3]; 72 h, 100 μg/ml): 3.9 log10 PFU/ml; Titer of VV (vaccinia virus (VV); 48 h, 100 μg/ml): 1.2 log10 PFU/ml; Titer of VV (vaccinia virus (VV); 72 h, 100 μg/ml): 1.5 log10 PFU/ml; MCC (minimal cytotoxic concentration) (PRK cells [4]): ≥ 100 µg/mL; ID50 dUrd incorporation (PRK cells [5]): 230 µg/mL; ID50 Leu incorporation (PRK cells [5]): > 400 µg/mL; ID50 Urd incorporation (PRK cells [5]): > 400 µg/mL; ID50 dThd incorporation (PRK cells [5]): 250 µg/mL
Nc1ncnc2c1ncn2CC1COP(=O)(O)CO1 (racemic) [No. 5, 2',3'-cyclic O-phosphonylmethyl ether of (RS)-9-(2,3-dihydroxypropyl)adenine]	> 200 µg/mL	> 400 µg/mL	> 400 µg/mL	> 400 µg/mL	> 400 µg/mL	> 100 µg/mL	> 400 µg/mL	0.7 to 3.0 µg/mL	30 µg/mL (≈ 105 µM)	30 µg/mL (≈ 105 µM)	> 200 µg/mL	30 µg/mL (≈ 105 µM)	30 µg/mL (≈ 105 µM)	7 µg/mL (≈ 24.5 µM)	15 µg/mL (≈ 52.6 µM)	15 µg/mL (≈ 52.6 µM)	< 1.3 log10 PFU/ml	2.8 log10 PFU/ml	1.6 log10 PFU/ml	1.8 log10 PFU/ml	Titer of HSV-1 [3, 6]: 6.04 log10 PFU/ml; Titer of VV (vaccinia virus (VV); [6]): < 1.3 log10 PFU/ml; Titer of VV (vaccinia virus (VV); 48 h, 100 μg/ml): < 1.3 log10 PFU/ml; Titer of VV (vaccinia virus (VV); 72 h, 100 μg/ml): 1.5 log10 PFU/ml; MCC (minimal cytotoxic concentration) (PRK cells [4]): > 400 µg/mL; ID50 dUrd incorporation (PRK cells [5]): ≥ 360 µg/mL; ID50 Leu incorporation (PRK cells [5]): > 400 µg/mL; ID50 Urd incorporation (PRK cells [5]): > 400 µg/mL; ID50 dThd incorporation (PRK cells [5]): ≥ 390 µg/mL
